Results taken from patent US8846947B2, “Benzimidazoles and related analogs as sirtuin modulators” (GlaxoSmithKline LLC, priority 2008, dated 2014).
Like-named read-outs stand apart in the source and are kept apart here.

Target: T1, SIRT1 (Homo sapiens, UniProt Q96EB6)
T1 sequence (Q96EB6 1-747): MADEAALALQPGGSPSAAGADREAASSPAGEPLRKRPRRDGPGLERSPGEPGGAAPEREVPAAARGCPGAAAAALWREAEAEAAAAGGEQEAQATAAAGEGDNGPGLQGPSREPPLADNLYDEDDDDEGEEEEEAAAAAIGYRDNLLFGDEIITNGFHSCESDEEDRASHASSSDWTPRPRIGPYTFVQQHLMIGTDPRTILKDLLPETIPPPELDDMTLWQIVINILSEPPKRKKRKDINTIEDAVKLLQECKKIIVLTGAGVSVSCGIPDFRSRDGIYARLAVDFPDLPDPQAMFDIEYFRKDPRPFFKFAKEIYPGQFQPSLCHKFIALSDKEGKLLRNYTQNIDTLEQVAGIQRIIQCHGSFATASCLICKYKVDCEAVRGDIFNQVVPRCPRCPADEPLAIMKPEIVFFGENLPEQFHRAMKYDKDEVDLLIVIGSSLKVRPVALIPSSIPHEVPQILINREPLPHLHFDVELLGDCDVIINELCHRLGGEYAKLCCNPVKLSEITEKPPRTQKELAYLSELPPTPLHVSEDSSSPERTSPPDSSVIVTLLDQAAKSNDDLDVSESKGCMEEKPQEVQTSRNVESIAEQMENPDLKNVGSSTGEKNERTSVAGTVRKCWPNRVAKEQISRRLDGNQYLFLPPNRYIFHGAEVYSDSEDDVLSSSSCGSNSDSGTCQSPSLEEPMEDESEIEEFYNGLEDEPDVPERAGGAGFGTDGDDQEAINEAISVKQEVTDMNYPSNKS
Experiment: Mass spectrometry based SIRT1 deacetylase activation assay (acetylated p53-derived peptide substrate)
Assay type: biochemical

[1] = 0.5 μM peptide substrate, 120 μM βNAD+, 10 nM SIRT1, 25 minutes at 25° C.
[2] = 0.5 μM peptide substrate, 120 μM βNAD+, 10 nM SIRT1, 25 min at 25° C.
[3] = 0.5 μM peptide substrate, 120 μM βNAD+, 10 nM SIRT1, 25 min at 25° C., read-out: EC1.5

SMILES | EC1.5 | Fold Act. (percent maximum fold activation) | EC1.5 [1] | Fold Act. (percent maximum fold activation) [1] | other results
O=C(Nc1nccs1)c1cccc2[nH]c(-c3ccccc3OCCN3CCCC(F)(F)C3)nc12 [Compound 611] | – | – | C (EC1.5 >25 uM) | B (Fold Activation <200%) | –
O=C(NC1CCNCC1)c1cccc2[nH]c(-c3ccc(F)cc3C(F)(F)F)nc12 [Compound 454] | – | – | – | – | Fold Act. (percent maximum fold activation) [2]: B (Fold Activation <200%); EC1.5 [3]: > 25000 nM
O=C(Nc1cccnn1)c1cc(N2CCOCC2)cc2[nH]c(-c3ccc(F)cc3C(F)(F)F)nc12 [Compound 692] | – | – | A (EC1.5<1.0 uM) | A (Fold activation >200%) | –
O=C(Nc1cccnn1)c1cc(N2CCOCC2)cc2[nH]c(-c3cc(F)ccc3C(F)(F)F)nc12 [Compound 647] | – | – | A (EC1.5<1.0 uM) | A (Fold activation >200%) | –
COc1cc(C(=O)Nc2ccccn2)c2nc(-c3ccccc3C(F)(F)F)[nH]c2c1 [Compound 632, 6-methoxy-N-(pyridin-2-yl)-2-(2-(trifluoromethyl)phenyl)-1H-benzo[d]imidazole-4-carboxamide] | – | – | A (EC1.5<1.0 uM) | A (Fold activation >200%) | –
COc1cc(C(=O)Nc2nccs2)c2nc(-c3ccc(Cl)cc3C(F)(F)F)[nH]c2c1 [Compound 635] | – | – | A (EC1.5<1.0 uM) | A (Fold activation >200%) | –
O=C(Nc1cccnn1)c1cccc2[nH]c(-c3cc(F)ccc3C(F)(F)F)nc12 [Compound 456] | – | – | – | – | Fold Act. (percent maximum fold activation) [2]: A (Fold activation >200%); EC1.5 [3]: < 1000 nM
O=C(Nc1cccc(CN2CCOCC2)n1)c1cccc2[nH]c(-c3cc(F)cc(F)c3)nc12 [Compound 852] | – | – | A (EC1.5<1.0 uM) | A (Fold activation >200%) | –
O=C(Nc1nccs1)c1cncc2[nH]c(-c3ccc(F)cc3C(F)(F)F)nc12 [Compound 693, 2-(4-fluoro-2-trifluoromethyl-phenyl)-3H-imidazo[4,5-c]pyridine-7-carboxylic acid thiazol-2-ylamide] | – | – | B (EC1.5 1-25 uM) | B (Fold Activation <200%) | –
O=C(Nc1cccnc1)c1cc(N2CCOCC2)cc2[nH]c(-c3cc(F)ccc3C(F)F)nc12 [Compound 767] | – | – | A (EC1.5<1.0 uM) | A (Fold activation >200%) | –
O=C(Nc1nccs1)c1cccc2[nH]c(-c3cc(F)cc(Cl)c3OCCN3CCOCC3)nc12 [Compound 543] | – | – | – | – | Fold Act. (percent maximum fold activation) [2]: B (Fold Activation <200%); EC1.5 [3]: 1000 to 25000 nM
O=C(Nc1cccnc1)c1cccc2[nH]c(-c3ccc(N4CCCC4)cc3C(F)F)nc12 [Compound 774] | – | – | A (EC1.5<1.0 uM) | A (Fold activation >200%) | –
O=C(Nc1nccs1)c1cccc2[nH]c(-c3cc(F)ccc3C(F)F)nc12 [Compound 511] | – | – | – | – | Fold Act. (percent maximum fold activation) [2]: A (Fold activation >200%); EC1.5 [3]: 1000 to 25000 nM
Cc1ccc(-c2nc3c(C(=O)Nc4nc(CN5CCOCC5)cs4)cccc3[nH]2)cn1 [Compound 843] | – | – | A (EC1.5<1.0 uM) | A (Fold activation >200%) | –
O=C(Nc1nccs1)c1cccc2[nH]c(-c3ccc(Cl)nc3)nc12 [Compound 246] | B (EC1.5 1-25 uM) | B (Fold Activation <200%) | – | – | –
O=C(Nc1nccs1)c1cccc2[nH]c(-c3ccccc3OCCN3CCNCC3)nc12 [Compound 483] | – | – | – | – | Fold Act. (percent maximum fold activation) [2]: A (Fold activation >200%); EC1.5 [3]: 1000 to 25000 nM
O=C(Nc1ccncc1)c1cccc2[nH]c(-c3ccnn3-c3ccccc3)nc12 [Compound 310] | A (EC1.5<1.0 uM) | A (Fold activation >200%) | – | – | –
O=C(Nc1nc(CN2CCOCC2)cs1)c1cccc2[nH]c(-c3ccc(F)cc3C(F)F)nc12 [Compound 846] | – | – | A (EC1.5<1.0 uM) | A (Fold activation >200%) | –
O=C(Nc1nccs1)c1cccc2[nH]c(-c3cc(N4CCCC4)ccc3C(F)(F)F)nc12 [Compound 664] | – | – | C (EC1.5 >25 uM) | B (Fold Activation <200%) | –
O=C(Nc1ccccn1)c1cc(N2CCOCC2)cc2[nH]c(-c3cc(F)ccc3C(F)(F)F)nc12 [Compound 645] | – | – | A (EC1.5<1.0 uM) | A (Fold activation >200%) | –
O=C(Nc1ccccn1)c1cccc2[nH]c(-c3ccc(N4CCOCC4)cc3C(F)(F)F)nc12 [Compound 415] | – | – | – | – | Fold Act. (percent maximum fold activation) [2]: A (Fold activation >200%); EC1.5 [3]: < 1000 nM
O=C(Nc1nccs1)c1cncc2[nH]c(-c3ccc(Cl)cc3C(F)(F)F)nc12 [Compound 648] | – | – | A (EC1.5<1.0 uM) | A (Fold activation >200%) | –
O=C(Nc1nccs1)c1cccc2[nH]c(-c3ccoc3)nc12 [Compound 229] | B (EC1.5 1-25 uM) | A (Fold activation >200%) | – | – | –
O=C(Nc1ccccn1)c1cccc2[nH]c(-c3cc(Cl)ccc3C(F)(F)F)nc12 [Compound 429] | – | – | – | – | Fold Act. (percent maximum fold activation) [2]: B (Fold Activation <200%); EC1.5 [3]: > 25000 nM
O=C(Nc1cccc2[nH]c(-c3cccc(N4CCOCC4)c3)nc12)c1cnccn1 [Compound 388] | B (EC1.5 1-25 uM) | A (Fold activation >200%) | – | – | –
O=C(Nc1cccnn1)c1cccc2[nH]c(-c3ccc(Cl)cc3C(F)(F)F)nc12 [Compound 432] | – | – | – | – | Fold Act. (percent maximum fold activation) [2]: A (Fold activation >200%); EC1.5 [3]: < 1000 nM
O=C(Nc1ccccn1)c1cncc2[nH]c(-c3ccc(OC[C@H](O)CO)cc3C(F)(F)F)nc12 [Compound 763] | – | – | A (EC1.5<1.0 uM) | A (Fold activation >200%) | –
Cc1cnc(NC(=O)c2cccc3[nH]c(-c4cccc5c4OC(F)(F)O5)nc23)s1 [Compound 532] | – | – | – | – | Fold Act. (percent maximum fold activation) [2]: A (Fold activation >200%); EC1.5 [3]: < 1000 nM
O=C(Nc1cccnc1)c1cccc2[nH]c(-c3cccc(OC4CCNCC4)c3)nc12 [Compound 567] | – | – | – | – | Fold Act. (percent maximum fold activation) [2]: A (Fold activation >200%); EC1.5 [3]: < 1000 nM
O=C(Nc1nccs1)c1cccc2[nH]c(-c3ccccc3OCCN3CC[C@H](F)C3)nc12 [Compound 509] | – | – | – | – | Fold Act. (percent maximum fold activation) [2]: B (Fold Activation <200%); EC1.5 [3]: < 1000 nM

Further lines, with some results ahead:

EC1.5 | Fold Act. (percent maximum fold activation) | EC1.5 [1] | Fold Act. (percent maximum fold activation) [1] | SMILES | other results
C (EC1.5 >25 uM) | B (Fold Activation <200%) | – | – | Cc1noc(C)c1NC(=O)c1cccc2[nH]c(-c3cccc(C(F)(F)F)c3)nc12 [Compound 261] | –
B (EC1.5 1-25 uM) | A (Fold activation >200%) | – | – | O=C(NC1CCOC1=O)c1cccc2[nH]c(-c3ccc(Cl)cc3C(F)(F)F)nc12 (stereo not drawn) [Compound 355] | –
– | – | A (EC1.5<1.0 uM) | A (Fold activation >200%) | O=C(Nc1ccccc1)c1cccc2[nH]c(-c3ccc(F)cc3C(F)(F)F)nc12 [Compound 755] | –
– | – | A (EC1.5<1.0 uM) | A (Fold activation >200%) | O=C(Nc1cccc(CN2CCCC2)n1)c1cccc2[nH]c(-c3cc(F)ccc3C(F)(F)F)nc12 [Compound 623] | –
B (EC1.5 1-25 uM) | A (Fold activation >200%) | – | – | O=C(NCc1ccccn1)c1cccc2[nH]c(-c3cccc(C(F)(F)F)c3)nc12 [Compound 252] | –
A (EC1.5<1.0 uM) | A (Fold activation >200%) | – | – | Cc1nc(NC(=O)c2cccc3[nH]c(-c4cccc(N5CCOCC5)c4)nc23)sc1C [Compound 382] | –
A (EC1.5<1.0 uM) | A (Fold activation >200%) | – | – | Cc1nc(NC(=O)c2cccc3[nH]c(-c4cc(F)ccc4C(F)(F)F)nc23)sc1C [Compound 377] | –
A (EC1.5<1.0 uM) | A (Fold activation >200%) | – | – | Cc1cc(C)nc(NC(=O)c2cccc3[nH]c(-c4cccc(C(F)(F)F)c4)nc23)c1 [Compound 279] | –
– | – | B (EC1.5 1-25 uM) | B (Fold Activation <200%) | O=C(Nc1ccccn1)c1cccc2[nH]c(-c3cc(N4CC[C@H](F)C4)ccc3C(F)(F)F)nc12 [Compound 666] | –
B (EC1.5 1-25 uM) | A (Fold activation >200%) | – | – | O=C(Nc1ccccn1)c1cccc2[nH]c(-c3cccc(C(F)(F)F)c3)nc12 [Compound 233] | –
A (EC1.5<1.0 uM) | A (Fold activation >200%) | – | – | Cc1cc(C)nc(NC(=O)c2cccc3[nH]c(-c4cc(F)ccc4C(F)(F)F)nc23)c1 [Compound 379] | –
B (EC1.5 1-25 uM) | A (Fold activation >200%) | – | – | O=C(Nc1cnccn1)c1cccc2[nH]c(-c3ccccc3)nc12 [Compound 201] | –
